Results reported in US20060211650A1, “Reducing carbohydrate derivatives of adamantane amines, and synthesis and methods of use thereof” (Forest Laboratories, Inc., priority 2004, published 2006).
Values joined by “and” are separate entries in the source; they are usually repeats but may differ in a detail not shown here. Equal entries are not always repeated.

What was measured:
Assay in all cases: Disk assay, zone of inhibition
Format in all cases: cell-based
[1] = system: Staphylococcus aureus, ATCC #6538
Protocol: (§1) The antibiotic activity of a 1% memantine-lactose adduct solution in saline was assayed using a disk assay against three USP bacteria cultures: Staphylococcus aureus, Pseudomonas aeruginosa and Escherichia coli. A negative control, 0.9% saline disk, and a positive control, 1% gentamicin solution in saline, were included. Antibacterial activity was evaluated by measuring (in mm) the size of any clear zone of no growth (i.e., Zone of Inhibition) around each sample. A “No Zone” is reported when no antibacterial activity is observed. […] These experiments may be predictive of biological effects in humans or other mammals and/or may serve as models for use of the present invention in humans or other mammals for the treatment of infections caused by Gram positive or Gram negative bacteria. See, e.g., Kustimur et al., Chinese Medical Journal, 116(4):633-636 (2003).

[2] = system: Pseudomonas aeruginosa, ATCC #9027; settings: 1% solution in saline on disk, Plates 1-3, "No Zone" = no antibacterial activity observed
Protocol: as §1

[3] = system: Escherichia coli, ATCC #8739; settings: 1% solution in saline on disk, Plates 1-3, "No Zone" = no antibacterial activity observed
Protocol: as §1

| Compound | antibacterial activity (result in words) ([1]; Staphylococcus aureus, 1% solution in saline, disk assay) | Zone of Inhibition [2] | Zone of Inhibition [3] | Zone of Inhibition ([1]; Staphylococcus aureus ATCC #6538, 1% solution in saline on disk, Plates 1-3, "No Zone" = no antibacterial activity observed) |
| --- | --- | --- | --- | --- |
| CC12CC3CC(C)(C1)CC(NCC(=O)[C@@H](O)C(O[C@@H]1O[C@H](CO)[C@@H](O)[C@H](O)[C@H]1O)[C@H](O)CO)(C3)C2 (stereo partly drawn) [Memantine-lactose adduct] | found to have antibacterial activity | No Zone | No Zone | – |
| gentamicin | – | 11.2 mm and 10.9 mm and 9.9 mm | 15.5 mm and 16.8 mm | 19.3 mm and 19.1 mm and 15.8 mm |
